Measured values: patent publication US9708251B2, “Unsaturated fatty alcohol alkoxylates from natural oil metathesis” (Stepan Company, priority 2012, dated 2017)
Values belong to the molecule of their own block, whether it stands above or below them.

Columns and labels:
[1] = Emulsion stability testing of nonionic emulsifiers, aromatic solvent series; assay type: physicochemical; set-up: key to 24 h separation, appearance / 1 h separation, appearance / 1 h separation, amount: C = creamy; CO = creamy oil; O = oil; GC = gritty cream; NS = no separation; OC = oily cream; key to Spon. (spontaneity): G = good; F = fair; P = poor
Procedure: (§1) Nonionic samples contain a low amount of water (<1%) and are prepared as emulsifiable concentrates with three pesticides using two different solvent systems. In the aromatic solvent series, the nonionic sample replaces Toximul® 8240 (castor oil ethoxylate, 36 POE, Stepan), and in the Hallcomid™ (N,N-dimethylcaprylamide/N,N-dimethylcapramide, Stepan) solvent series, the nonionic sample replaces Ninex® MT-630F.
Sample preparation: Ninate® 60E (calcium alkylbenzenesulfonate, Stepan) and the test sample are stirred until homogeneous. […] Controls 1-3 are made by using Toximul 8240 in the amounts indicated instead of the nonionic sample.
Formulations: • 1. Bifenthrin, 240 g/L (2.99 g), Aromatic 100 (ExxonMobil, 8.05 g), Ninate 60E (0.38 g), and nonionic sample or Toximul 8240 (0.58 g). • 2. 2,4-D ester, 480 g/L (8.90 g), Exxsol® D-110 (ExxonMobil, 2.50 g), Ninate 60E (0.36 g), and nonionic sample or Toximul 8240 (0.24 g). • 3. Tebuconazole, 360 g/L (4.45 g), N-methyl-2-pyrrolidone (6.35 g), Ninate 60E (0.48 g), nonionic sample or Toximul 8240 (0.72 g).
(§2) Emulsion Stability Testing
(§3) A Mohr pipette is used to feed pesticide/surfactant concentrates to each cylinder.

[2] = Emulsion stability testing of nonionic emulsifiers, Hallcomid solvent series; assay type: physicochemical; set-up: key to 24 h separation, appearance / 1 h separation, appearance / 1 h separation, amount: C = creamy; CO = creamy oil; O = oil; GC = gritty cream; NS = no separation; OC = oily cream; key to Spon. (spontaneity): G = good; F = fair; P = poor
Procedure: as §1
(§4) Hallcomid Solvent Series.
(§5) Sample preparation: The surfactants are combined and stirred until homogeneous, with the nonionic sample melted if needed prior to combination. Controls 1-3 are made by using Ninex MT-630F in the amounts indicated instead of the nonionic sample.
as §2, §3

[3] = Surfactant phase behavior study (cross-polarized microscopy); assay type: physicochemical; conditions: room temperature
Procedure: Phase behavior is observed using an Olympus BH-2 cross-polarized microscope at 100-400× and room temperature (20° C. to 22° C.). The inventive monounsaturated alcohol ethoxylates are compared with their saturated analogs.
Samples are prepared by diluting the most concentrated product gradually with deionized water. When the surfactant concentration approaches a phase transition, the concentration is varied at 2-4% intervals to estimate the phase boundary. The actives level reported in Table 4 for each phase boundary is within ±5% of the true boundary.
Samples are loaded between a microscope slide and cover glass and are allowed to equilibrate before observation. Microscopic texture is analyzed and used to determine the phase. For some samples, an AR 2000 rheometer (TA Instruments) is used to measure viscosity at 25° C. to further verify phase behavior.

[4] = 0.4 wt. % active, 342 ppm hard water
Procedure: Surfactant solution (100 mL) is carefully transferred to a stainless-steel mixing cup, then mixed at high speed (27K rpm) using a Hamilton Beach mixer for 10 s. The contents are quickly poured into a 100-mL graduated cylinder to the 100-mL mark, and a stopwatch is immediately started. The amount of liquid settling in the cylinder is recorded every 15 s for 4 min. Less liquid drained indicates greater foam stability.

[5] = Emulsion stability testing of nonionic emulsifiers, Hallcomid solvent series; assay type: physicochemical; set-up: key: C = creamy; CO = creamy oil; O = oil; GC = gritty cream; NS = no separation; OC = oily cream; conditions: Bifenthrin 240 g/L in Hallcomid M-8-10, 34 ppm water
Procedure: as §1, §4, §5, §2, §3

[6] = Agrichemical solvent analysis: active solubility; assay type: physicochemical; conditions: room temperature
Procedure: Solvency strength of potential agrichemical solvents is evaluated by identifying the solubility level of three standard pesticides in the solvent by weight percent: 2,4-D acid, imidacloprid, and tebuconazole. […] The active material is also accurately weighed before addition. Initial amounts of active material are approximately: 2,4-D: 0.3 g; imidacloprid: 0.02 g; tebuconazole: 0.3 g. Solvent and pesticide active are combined, allowed to mix for 1 h at room temperature, and then inspected for the presence of undissolved active material. Additional active material is added in appropriately small increments until it no longer dissolves completely. This mixture is then stirred for 24 h at room temperature, and if the active has completely dissolved, additional active ingredient is added and the mixture is stirred another 24 h at room temperature. The percent solubility is recorded, and performance is compared with that of a standard agricultural solvent.

[7] = 2,4-D ester 480 g/L in Exxsol D-110, 34 ppm water
[8] = 2,4-D ester 480 g/L in Exxsol D-110, 1000 ppm water
[9] = Bifenthrin 240 g/L in Aromatic 100, 34 ppm water
[10] = Bifenthrin 240 g/L in Aromatic 100, 1000 ppm water
[11] = Tebuconazole 360 g/L in N-methyl-2-pyrrolidone, 34 ppm water
[12] = Tebuconazole 360 g/L in N-methyl-2-pyrrolidone, 1000 ppm water
[13] = 2,4-D diester 480 g/L in Hallcomid M-8-10, 34 ppm water
[14] = 2,4-D diester 480 g/L in Hallcomid M-8-10, 1000 ppm water
[15] = Bifenthrin 240 g/L in Hallcomid M-8-10, 34 ppm water
[16] = Bifenthrin 240 g/L in Hallcomid M-8-10, 1000 ppm water
[17] = Tebuconazole 360 g/L in Hallcomid M-8-10, 34 ppm water
[18] = Tebuconazole 360 g/L in Hallcomid M-8-10, 1000 ppm water

1 h separation, amount [1, 7]: 2.8 mL
1 h separation, appearance [1, 7]: C
24 h separation, amount [1, 7]: 4.6 mL
24 h separation, appearance [1, 7]: C
Spon. (spontaneity) [1, 7]: G
1 h separation, amount [1, 8]: 3.9 mL
1 h separation, appearance [1, 8]: CO
24 h separation, amount [1, 8]: 1 O, 4 CO
Spon. (spontaneity) [1, 8]: F
1 h separation, amount [1, 9]: 3 mL
1 h separation, appearance [1, 9]: C
24 h separation, amount [1, 9]: 5.8 mL
24 h separation, appearance [1, 9]: C
Spon. (spontaneity) [1, 9]: F
1 h separation, amount [1, 10]: NS
24 h separation, amount [1, 10]: 2.6 mL
24 h separation, appearance [1, 10]: O
Spon. (spontaneity) [1, 10]: G
1 h separation, amount [1, 11]: 1.5 CO, 0.5 C
24 h separation, amount [1, 11]: 2.8 mL
24 h separation, appearance [1, 11]: CO
Spon. (spontaneity) [1, 11]: P
1 h separation, amount [1, 12]: 2.1 mL
1 h separation, appearance [1, 12]: CO
24 h separation, amount [1, 12]: 3.5 mL
24 h separation, appearance [1, 12]: CO
Spon. (spontaneity) [1, 12]: P
1 h separation, amount [2, 13]: 4.5 mL
1 h separation, appearance [2, 13]: C
24 h separation, amount [2, 13]: 8.2 mL
24 h separation, appearance [2, 13]: C
Spon. (spontaneity) [2, 13]: P
1 h separation, amount [2, 14]: 5 mL
1 h separation, appearance [2, 14]: C
24 h separation, amount [2, 14]: 7.8 mL
24 h separation, appearance [2, 14]: C
Spon. (spontaneity) [2, 14]: F
1 h separation, amount [2, 15]: NS
Spon. (spontaneity) [2, 15]: G
1 h separation, amount [2, 16]: 6.4 mL
1 h separation, appearance [2, 16]: CO
24 h separation, amount [2, 16]: 6 mL
24 h separation, appearance [2, 16]: O
Spon. (spontaneity) [2, 16]: F
1 h separation, amount [2, 17]: 2.1 mL
1 h separation, appearance [2, 17]: C
24 h separation, amount [2, 17]: 4.9 mL
24 h separation, appearance [2, 17]: C
Spon. (spontaneity) [2, 17]: F
1 h separation, amount [2, 18]: 3 mL
1 h separation, appearance [2, 18]: C
24 h separation, amount [2, 18]: 5.5 mL
24 h separation, appearance [2, 18]: C
Spon. (spontaneity) [2, 18]: F
Isotropic Clear phase region ([3]; in deionized water): 0-100 % Actives Level
Liquid volume at drain time 0.5 min [4]: 0.50 mL
Liquid volume at drain time 1.0 min [4]: 2.25 mL
Liquid volume at drain time 1.5 min [4]: 4.00 mL
Liquid volume at drain time 2.0 min [4]: 6.00 mL
Liquid volume at drain time 2.5 min [4]: 7.50 mL
Liquid volume at drain time 3.0 min [4]: 9.50 mL
Liquid volume at drain time 3.5 min [4]: 11.50 mL
Liquid volume at drain time 4.0 min [4]: 13.25 mL
24 h separation, amount [5]: NS
SMILES: C=CCCCCCCCCOCCOCCOCCOCCOCCOCCOCCO [A10-13]

1 h separation, amount [1, 7]: 3.2 mL
1 h separation, appearance [1, 7]: C
24 h separation, amount [1, 7]: 5.5 mL
24 h separation, appearance [1, 7]: C
Spon. (spontaneity) [1, 7]: P
1 h separation, amount [1, 8]: 4.2 mL
1 h separation, appearance [1, 8]: O
24 h separation, amount [1, 8]: 0.8 O, 3.3 CO
Spon. (spontaneity) [1, 8]: P
1 h separation, amount [1, 9]: 8.8 mL
1 h separation, appearance [1, 9]: C
24 h separation, amount [1, 9]: 6.8 mL
24 h separation, appearance [1, 9]: C
Spon. (spontaneity) [1, 9]: P
1 h separation, amount [1, 10]: 4.5 mL
1 h separation, appearance [1, 10]: O
24 h separation, amount [1, 10]: 4.9 mL
24 h separation, appearance [1, 10]: O
Spon. (spontaneity) [1, 10]: P
1 h separation, amount [1, 11]: 2.3 mL
1 h separation, appearance [1, 11]: C
24 h separation, amount [1, 11]: 3 mL
24 h separation, appearance [1, 11]: GC
Spon. (spontaneity) [1, 11]: P
1 h separation, amount [1, 12]: 2.6 mL
1 h separation, appearance [1, 12]: C
24 h separation, amount [1, 12]: 3.2 mL
24 h separation, appearance [1, 12]: GC
Spon. (spontaneity) [1, 12]: P
1 h separation, amount [2, 13]: 6 mL
1 h separation, appearance [2, 13]: C
24 h separation, amount [2, 13]: 10 mL
24 h separation, appearance [2, 13]: C
Spon. (spontaneity) [2, 13]: F
1 h separation, amount [2, 14]: 6.7 mL
1 h separation, appearance [2, 14]: C
24 h separation, amount [2, 14]: 8.2 mL
24 h separation, appearance [2, 14]: C
Spon. (spontaneity) [2, 14]: F
1 h separation, amount [2, 15]: NS
Spon. (spontaneity) [2, 15]: G
1 h separation, amount [2, 16]: 10.2 mL
1 h separation, appearance [2, 16]: C
24 h separation, amount [2, 16]: 2 O, 3.5 CO
Spon. (spontaneity) [2, 16]: F
1 h separation, amount [2, 17]: 2 mL
1 h separation, appearance [2, 17]: C
24 h separation, amount [2, 17]: 5.1 mL
24 h separation, appearance [2, 17]: C
Spon. (spontaneity) [2, 17]: F
1 h separation, amount [2, 18]: 2.7 mL
1 h separation, appearance [2, 18]: C
24 h separation, amount [2, 18]: 4.9 mL
24 h separation, appearance [2, 18]: C
Spon. (spontaneity) [2, 18]: F
combined isotropic phases (clear and opaque), share of the total [3]: about 66%
Isotropic Clear phase region ([3]; in deionized water): 74-100 % Actives Level
Isotropic Opaque phase region ([3]; in deionized water): 0-40 % Actives Level
Lamellar phase region ([3]; in deionized water): 40-74 % Actives Level
24 h separation, amount [5]: NS
SMILES: CCC=CCCCCCCCCOCCOCCOCCO (mixture of isomers) [A12-7]

1 h separation, amount [1, 7]: 1.5 mL
1 h separation, appearance [1, 7]: CO
24 h separation, amount [1, 7]: 4.1 mL
24 h separation, appearance [1, 7]: C
Spon. (spontaneity) [1, 7]: F
1 h separation, amount [1, 8]: 4 mL
1 h separation, appearance [1, 8]: CO
24 h separation, amount [1, 8]: 1 O, 4 CO
Spon. (spontaneity) [1, 8]: P
1 h separation, amount [1, 9]: NS
24 h separation, amount [1, 9]: 3.5 mL
24 h separation, appearance [1, 9]: C
Spon. (spontaneity) [1, 9]: F
1 h separation, amount [1, 10]: 3 O, 5 CO
24 h separation, amount [1, 10]: 4.5 O, 1 CO
Spon. (spontaneity) [1, 10]: F
1 h separation, amount [1, 11]: 2 mL
1 h separation, appearance [1, 11]: CO
24 h separation, amount [1, 11]: 2.5 mL
24 h separation, appearance [1, 11]: CO
Spon. (spontaneity) [1, 11]: P
1 h separation, amount [1, 12]: 2.5 mL
1 h separation, appearance [1, 12]: CO
24 h separation, amount [1, 12]: 3 mL
24 h separation, appearance [1, 12]: CO
Spon. (spontaneity) [1, 12]: P
1 h separation, amount [2, 13]: 5 mL
1 h separation, appearance [2, 13]: C
24 h separation, amount [2, 13]: 9.9 mL
24 h separation, appearance [2, 13]: C
Spon. (spontaneity) [2, 13]: F
1 h separation, amount [2, 14]: 6 mL
1 h separation, appearance [2, 14]: C
24 h separation, amount [2, 14]: 8 mL
24 h separation, appearance [2, 14]: C
Spon. (spontaneity) [2, 14]: F
1 h separation, amount [2, 15]: NS
Spon. (spontaneity) [2, 15]: G
1 h separation, amount [2, 16]: 6.5 mL
1 h separation, appearance [2, 16]: CO
24 h separation, amount [2, 16]: 4 O, 2 CO
Spon. (spontaneity) [2, 16]: F
1 h separation, amount [2, 17]: 2 mL
1 h separation, appearance [2, 17]: C
24 h separation, amount [2, 17]: 5 mL
24 h separation, appearance [2, 17]: C
Spon. (spontaneity) [2, 17]: F
1 h separation, amount [2, 18]: 3.5 mL
1 h separation, appearance [2, 18]: C
24 h separation, amount [2, 18]: 2 CO, 5 C
Spon. (spontaneity) [2, 18]: F
solubility of 2,4-D Acid in the solvent [6]: 29.8 weight percent
solubility of Imidacloprid in the solvent [6]: 2.8 weight percent
solubility of Tebuconazole in the solvent [6]: 13.0 weight percent
Isotropic Clear phase region ([3]; in deionized water): 0-100 % Actives Level
24 h separation, amount [5]: NS
SMILES: C=CCCCCCCCCOCCOCCOCCOCCOCCO [A10-10]
